# Entries after “also recorded” stand apart in the source; their conditions may differ.
# Legend:
# Rising MTD study in mice = details: mouse, in vivo, 1000 mg/kg/day, read-out: Approximate Cmax
# Experimental: (Approximate Cmax@ [1000 mg/kg/day] was […]). Based on these studies, 10 mg was determined to be a safe starting dose in the human study.
# [1] = tested on: U937s, RAWs, primary monocytes, PBMCs, Jurkats, undifferentiated CD4 T cells, 293Ts, RD cells; assay: LPS-induced TNF-α production in different cell types; type: cell-based
# Experimental: (§1) (A) Cell viability was measured via the MTT assay after 48 hours of treatment. (B) TNF-α levels were measured 48 hours post LPS (5 μg/ml) stimulation. (C) CD4 T cells were stimulated with either ConA (10 μg/ml) or anti-CD3/CD28 beads (10 μg/ml), and proliferation was measured via 3H-thymidine incorporation.
# Next, the production of TNF-α was measured following LPS stimulation in these different cell types. […] VGX-1027-induced effects were not observed.
# Oral absorption in mice = type: in vivo
# Experimental: (§2) The highest plasma concentrations generally occurred in 1-2 hours. […] The highest level of inhibition was ˜35% for 2C19 at a 30 μM concentration. […] Lastly, VGX-1027 is stable in human liver S9 fractions (with phase 1 and 2 cofactors) with t1/2>90 minutes, which indicates a low likelihood of metabolism in the liver.
# [2] = tested on: RIN-m5F and MIN6 insulinoma cell lines; assay: Cytokine-stimulated insulinoma cell lines; type: cell-based
# Experimental: Both results were determined 48 hours post stimulation, and VGX-1027 was added at the time of stimulation.
# Insulinoma cell lines, which die following stimulation with either IL-1β/INF-γ or TNF-α/INF-γ, were used in this study. Specifically, cell lines RIN-m5F and MIN6 were treated with either IL-1β/INF-γ alone or IL-1β/INF-γ/VGX-1027, and TNF-α production, which is a consequence of stimulation with these factors, was measured.
# p38 and 1-kBα = assay: LPS-induced signalling pathway phosphorylation; type: cell-based
# Experimental: (A) Thioglycollate-elicited macrophages (1×10^6/ml) were stimulated with either LPS (5 μg/ml), zymosan (ZYM, 50 μg/ml), MDP (25 μg/ml), or Poly(I:C) (50 μg/ml) in the presence or absence of VGX-1027 (10 μg/ml). TNF-α was measured 48 hours post treatment. (B) Relative phosphorylations of 1-κBα and p38 were measured at the indicated time points following stimulation with LPS (5 μg/ml). The y-axis is presented as fold change in comparison to the values obtained from LPS-treated cultures alone. * p<0.05.
# (Jiang et al., J. Biol. Chem., (278) 16713-16719 (2003). In addition, it was observed that VGX-1027 inhibited LPS-induced phosphorylation of p38 and 1-kBα, indicating VGX-1027 inhibits a protein upstream of both the p38 and NF-κB, signaling pathways (FIG. 4b).
# CAR-induced pleurisy = assay: Carrageenan (CAR)-induced pleurisy; type: in vivo, mice; details: i.p. or oral
# Experimental: VGX-1027 was administered via the intraperitoneum or orally, and the production of exudates volume (A), PCN infiltration (B), and MPO activity (C) in the lungs was determined. Data are means±SD from 2 independent experiments.
# Next, carrageenan (CAR)-induced pleurisy, a well-known model of acute inflammation mediated by leukocytes where type-1 proinflammatory cytokines such as IL-1 and TNF-α play a major pathogenic role, was evaluated. Mice that are challenged with CAR develop acute pleurisy with turbid exudates. The amount of inflammation was measured by the volume of exudates, the number of granulocytes (PCN), and the amount of Myeloperoxidase (MPO), activity in the lungs. Anti-TNF antibodies were used as a control to compare the effects of VGX-1027 with those of TNF-α blockade, which is commonly used to treat inflammatory disorders in humans.
# LPS-induced lethality = assay: LPS-induced lethality; type: in vivo, mice
# Experimental: VGX-1027 was administered intraperitoneally (A) or orally (p.o.) (B), and its effect on cumulative rate of lethality induced by LPS was evaluated. Data from 2 to 3 independent experiments are shown. Statistical analysis was performed by logrank (Mantel-Cox). *p<0.05 was taken as significant. Each group is compared to the vehicle-treated group.
# As expected, most of the control mice either untreated or that received the vehicle of VGX-1027 succumbed to LPS-challenge within 3 days. […] In contrast, the treatment with VGX-1027 given either orally or intraperitoneally administration protect the mice from the lethal effects of LPS in a dose-dependent fashion. When given orally, VGX-1027 was effective at the dose of […] and […] both at 1.5 and 3 mg/mouse.
# Lipopolysaccharide (LPS) is the most studied of all TLR agonists because it induces both local and systemic inflammation, and responses to LPS mimic many of the features of tissue injury observed during infections with Gram-negative bacteria. Injection of LPS into mice triggers production of inflammatory cytokines and symptoms that are indistinguishable from those of septic shock.
# COX-1 = COX-1 (Homo sapiens, UniProt P23219); assay: COX-1 activity; type: biochemical
# Chain of COX-1 (P23219 24-599): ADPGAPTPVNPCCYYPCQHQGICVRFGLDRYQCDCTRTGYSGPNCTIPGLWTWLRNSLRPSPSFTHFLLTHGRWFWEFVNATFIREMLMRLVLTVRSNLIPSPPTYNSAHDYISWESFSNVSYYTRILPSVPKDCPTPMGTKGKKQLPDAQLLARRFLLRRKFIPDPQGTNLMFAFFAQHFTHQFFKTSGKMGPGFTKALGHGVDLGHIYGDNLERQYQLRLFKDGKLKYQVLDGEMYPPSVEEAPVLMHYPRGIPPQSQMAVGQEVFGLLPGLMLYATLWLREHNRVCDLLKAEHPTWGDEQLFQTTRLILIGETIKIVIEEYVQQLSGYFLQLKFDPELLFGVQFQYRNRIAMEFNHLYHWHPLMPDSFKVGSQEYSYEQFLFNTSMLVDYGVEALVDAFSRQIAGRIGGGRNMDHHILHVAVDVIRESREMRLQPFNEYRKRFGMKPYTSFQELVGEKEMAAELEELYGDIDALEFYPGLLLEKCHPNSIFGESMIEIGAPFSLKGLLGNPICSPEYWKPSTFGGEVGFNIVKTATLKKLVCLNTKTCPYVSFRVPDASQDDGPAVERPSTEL
# Experimental: as §2
# Metabolite monitoring = type: in vitro ADME; details: isoxazole ring disruption, single oxidation, single glucuronidation; any species
# Experimental: as §2
# [3] = tested on: In vitro-derived human DCs; assay: LPS-induced cytokine production of dendritic cells; type: cell-based; details: LPS 5 μg/ml, 10 mM, 72 hours
# Experimental: In vitro-derived human DCs were treated with LPS (5 μg/ml), with or without VGX-1027 (10 mM) for 72 hours. Concentrations of the cytokines in the media were measured via ELISA.
# [4] = tested on: various asynchronously growing cell lines (HeLa, Jurkat, RD, PBMCs, U937); assay: Cell viability (MTT assay, P1/Annexin V staining); type: cell-based; parameters: viability: dose or concentration left out as unconfirmed
# Experimental: as §1
# VGX-1027 was tested for whether its effects were cell-type-specific.
smiles,measurement,setting,value
"O=C(O)CC1CC(c2ccccc2)=NO1 (centres unmarked) [VGX-1027, 3-phenyl-4,5-dihydro-5-isoxazoleacetic acid]",Cmax,Rising MTD study in mice,~400 µg/mL
same,TNF-α production,[1]; 293Ts,did not affect
same,TNF-α production,[1]; Jurkats,did not affect
same,LPS-induced TNF-α production,[1]; PBMCs,inhibited
same,LPS-induced TNF-α production,[1]; RAWs,inhibited
same,TNF-α production,[1]; RD cells,did not affect
same,LPS-induced TNF-α production,[1]; U937s,inhibited
same,LPS-induced TNF-α production,[1]; primary monocytes,inhibited
same,TNF-α production,[1]; undifferentiated CD4 T cells,did not affect
same,oral absorption,Oral absorption in mice,rapidly absorbed
same,time of highest plasma concentrations,Oral absorption in mice,1 to 2 h
same,TNF-α production,"[2]; IL-1β/INF-γ stimulation, both cell types, 48 hours",significantly repressed
same,cell viability,"[2]; IL-1β/INF-γ with co-treatment, 48 hours",over 60%
same,cell viability with exogenous rTNF-α,[2]; IL-1β/INF-γ/TNF-α,prevented the protective effect
same,ERK pathway,p38 and 1-kBα,up-regulation
same,phosphorylation of 1-kBα,p38 and 1-kBα; LPS-induced,inhibited
same,phosphorylation of p38,p38 and 1-kBα; LPS-induced,inhibited
same,Myeloperoxidase (MPO) activity in the lungs,CAR-induced pleurisy,effectively decreased
same,number of granulocytes (PCN),CAR-induced pleurisy,effectively decreased
same,prevention of CAR-induced pleurisy compared with anti-TNF,CAR-induced pleurisy,as effective as anti-TNF treatment
same,volume of exudates,CAR-induced pleurisy,effectively decreased
same,protection from LPS lethality,"LPS-induced lethality; i.p., between 0.25 and 0.5 mg/mouse",dose-dependent protection
same,survival,"LPS-induced lethality; lethal dose of LPS (1 mg/mice), i.p. or oral",increased the survival
same,protection from LPS lethality,"LPS-induced lethality; oral, 2.5 mg/mouse",effective
same,protection from LPS lethality,"LPS-induced lethality; oral, 1.5 and 3 mg/mouse",dosed out
same,LPS-induced lethality,"LPS-induced lethality; prophylactic regime (−24 and −1 hour prior to LPS), oral and i.p.",significantly reducing
same,LPS-induced lethality,LPS-induced lethality; therapeutic administration,powerfully counteracts
same,inhibition of COX-1 activity,COX-1,no significant inhibition
same,metabolite peaks for the 3 monitored masses,Metabolite monitoring,no metabolite peaks were observed
same,IL-6 production,[3],dramatically repressed
same,IL-18 production,[3],dramatically repressed
same,IL-23 production,[3],dramatically repressed
same,TNF-α production,[3],dramatically repressed
same,viability,"[4]; 48 hours, MTT",Greater than 80%
same,toxicity to cell lines,"[4]; MTT assay and P1/Annexin V staining, up to 100 mM",did not cause toxicity; also recorded: not toxic
